Columns and labels:
[1] = molecular target: human histamine receptor type 4 (Homo sapiens, UniProt Q9H3N8); experiment: In vitro histamine receptor cell-based assay, H4R antagonist (aequorin bioluminescence); conditions: CHO-K1 cells expressing human H4 receptor, aequorin and Gα16; histamine at EC80
Source text: (§1) In Vitro Histamine Receptor Cell-Based Assays
(§2) The assays are based on an aequorin dependent bioluminescence signal, generated by receptor signaling through Gq/11 or a similarly acting G protein and a resulting transient calcium flux. Doubly-transfected, stable CHO-K1 cell lines expressing human histamine receptor type 1 or type 4, mitochondrion-targeted aequorin, and (histamine type 4 receptor only) human G protein Gα16 are obtained from Perkin-Elmer (Histamine H1 cell line, catalog ES-390-A; Histamine H4 cell line, catalog ES-393-A). Cells are maintained on conventional culture plasticware in F12 (Ham's) growth medium containing 10% (vol./vol.) fetal bovine serum, penicillin (100 IU/ml), streptomycin (0.1 mg/ml), zeocin (0.25 mg/ml) and geneticin (0.40 mg/ml), as per the manufacturer's instructions (all components from Invitrogen, Inc.). One day prior to assay, the growth medium is replaced with the same, excluding zeocin and geneticin.
(§3) To prepare cells for a histamine receptor assay, growth medium is aspirated, and the cells are rinsed with calcium-free, magnesium-free phosphate-buffered saline. The rinse is aspirated and replaced with Versene (Invitrogen, Inc.) and the cells incubated for two to three minutes at 37° C., followed by tapping the plate to fully dislodge cells. Assay medium (DMEM:F12 [50:50], phenol-red free, containing 1 mg/ml protease-free bovine serum albumin) is added to collect the cells, which are then transferred to a conical tube for centrifugation. The cell pellet is re-suspended in assay medium, and the cell density is determined by counting with a hemacytometer. The cells are then centrifuged again and re-suspended in assay medium to a final density of 5×10^6 cells/ml. Coelenterazine-h dye (500 μM in ethanol) is then added to a final concentration of 5 μM, and mixed immediately. The conical tube containing the cells is then wrapped with foil to protect the light sensitive dye. The cells are incubated for four hours further at normal room temperature (approximately 21° C.) with vertical rotation to keep them in suspension.
(§4) Just before assay, the dye-loaded cells are diluted to 0.75×10^6 cells/ml (H1 receptor) or 1.5×10^6 cells/ml (H4 receptor) with additional assay medium. Cells are dispensed to 1536 well microtiter plates at 3 μl/well. To assay receptor antagonist activity, […] of 100× concentration test compounds in dimethyl sulfoxide (DMSO) are dispensed to the wells, one compound per well, by passive pin transfer, and the plates are incubated for 15 minutes at room temperature. Assay plates are then transferred to a Lumilux (Perkin-Elmer) bioluminescence plate reader equipped with an automated 1536 well disposable tip pipette. The pipette then dispenses 3 μl/well of agonist (histamine, at twice the final concentration, where final concentration is a previously determined EC80 for response), with concurrent bioluminescence detection.
(§5) CCD imaging capture on the Lumilux instrument includes a 5 second baseline read prior to agonist addition, generally with a 40 second complete read per plate. A decrease in bioluminescence signal (measured either as area-under-the-curve, or maximum signal amplitude minus minimum signal amplitude) correlates with receptor antagonism. Negative control activity is measured with DMSO lacking any test compound. For receptor antagonist assays, positive control activity is measured with diphenhydramine (2-Diphenylmethoxy-N,N-dimethylethylamine, 10 μM final concentration, H1 receptor) or JNJ7777120 (1-[(5-Chloro-1H-indol-2-yl)carbonyl]-4-methyl-piperazine, 10 μM final concentration, H4 receptor). For receptor agonist assays, positive activity is measured with histamine (10 μM final concentration). Efficacy is measured as a percentage of positive control activity.

[2] = molecular target: human histamine receptor type 1 (Homo sapiens, UniProt P35367); experiment: In vitro histamine receptor cell-based assay, H1R antagonist (aequorin bioluminescence); conditions: CHO-K1 cells expressing human H1 receptor and aequorin; histamine at EC80
Source text: as §1, §2, §3, §4, §5

Sequence of human histamine receptor type 1 (P35367 whole entry): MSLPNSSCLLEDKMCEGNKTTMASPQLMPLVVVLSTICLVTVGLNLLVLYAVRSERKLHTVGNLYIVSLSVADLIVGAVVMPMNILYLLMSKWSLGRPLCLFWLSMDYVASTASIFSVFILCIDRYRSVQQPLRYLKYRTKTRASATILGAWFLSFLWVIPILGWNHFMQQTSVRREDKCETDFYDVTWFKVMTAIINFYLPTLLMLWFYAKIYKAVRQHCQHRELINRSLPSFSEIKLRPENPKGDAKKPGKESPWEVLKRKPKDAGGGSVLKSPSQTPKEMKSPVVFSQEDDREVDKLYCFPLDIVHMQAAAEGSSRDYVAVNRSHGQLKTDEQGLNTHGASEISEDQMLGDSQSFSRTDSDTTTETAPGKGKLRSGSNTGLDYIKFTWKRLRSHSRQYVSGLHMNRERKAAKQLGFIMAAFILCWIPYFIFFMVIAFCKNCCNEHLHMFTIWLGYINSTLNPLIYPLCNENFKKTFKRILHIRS

Row | IC50 [1] [µM] | IC50 [2] [µM] | Structure (SMILES)
1 | 1.07 | 0.54 | CCn1c2ccccc2c2cc(CN3CCCC(c4ccn[nH]4)C3)ccc21 (centres unmarked) [Example 1, 3-((3-(1H-pyrazol-5-yl)piperidin-1-yl)methyl)-9-ethyl-9H-carbazole]
2 | 2.23 | 11.1 | CCn1c2ccccc2c2cc(CN3CCOCC3)ccc21 [Example 2, 4-((9-Ethyl-9H-carbazol-3-yl)methyl)morpholine]
3 | 3.06 | 3.12 | CCn1c2ccccc2c2cc(CN3CCC(O)CC3)ccc21 [Example 3, 1-((9-Ethyl-9H-carbazol-3-yl)methyl)piperidin-4-ol]
4 | 9.62 | 18.2 | CCn1c2ccccc2c2cc(CN3CC(C)CC(C)C3)ccc21 (centres unmarked) [Example 4, 3-((3,5-Dimethylpiperidin-1-yl)methyl)-9-ethyl-9H-carbazole]
5 | 8.09 | 5.94 | CCn1c2ccccc2c2cc(CN3CCC(C)CC3)ccc21 [Example 5, 9-Ethyl-3-((4-methylpiperidin-1-yl)methyl)-9H-carbazole]
6 | 4.39 | 5.97 | CCn1c2ccccc2c2cc(CN3CCCC(C)C3)ccc21 (centres unmarked) [Example 6, 9-Ethyl-3-((3-methylpiperidin-1-yl)methyl)-9H-carbazole]
7 | 3.83 | 5.57 | CCOC(=O)C1CCCN(Cc2ccc3c(c2)c2ccccc2n3CC)C1 (centres unmarked) [Example 7, Ethyl 1-((9-ethyl-9H-carbazol-3-yl)methyl)piperidine-3-carboxylate]
8 | 8.5 | 7.55 | CCn1c2ccccc2c2cc(CN3CCCC3)ccc21 [Example 8, 9-Ethyl-3-(pyrrolidin-1-ylmethyl)-9H-carbazole]
9 | 12.6 | 46.4 | CCn1c2ccccc2c2cc(CN3CCNCC3)ccc21 [Example 9, 9-Ethyl-3-(piperazin-1-ylmethyl)-9H-carbazole]
10 | 0.18 | 0.68 | CCn1c2ccccc2c2cc(CN3CCCC(C(N)=O)C3)ccc21 (centres unmarked) [Example 10, 1-((9-Ethyl-9H-carbazol-3-yl)methyl)piperidine-3-carboxamide]
11 | 6.15 | 9.91 | CCn1c2ccccc2c2cc(CN3CCCC(C(=O)O)C3)ccc21 (centres unmarked) [Example 11, 1-((9-Ethyl-9H-carbazol-3-yl)methyl)piperidine-3-carboxylic acid]
12 | 1.46 | 3.16 | CCn1c2ccccc2c2cc(CN3CCCC(CO)C3)ccc21 (centres unmarked) [Example 12, (1-((9-Ethyl-9H-carbazol-3-yl)methyl)piperidin-3-yl)methanol]
13 | 1.03 | 2.56 | CCn1c2ccccc2c2cc(CN3CCCC(C#N)C3)ccc21 (centres unmarked) [Example 13, 1-((9-Ethyl-9H-carbazol-3-yl)methyl)piperidine-3-carbonitrile]
14 | 0.33 | 0.69 | CCn1c2ccccc2c2cc(CN3CCCC(c4nnn[nH]4)C3)ccc21 (centres unmarked) [Example 14, 3-((3-(1H-tetrazol-5-yl)piperidin-1-yl)methyl)-9-ethyl-9H-carbazole]
15 | 52.6 | 37.6 | c1ccc2c(c1)[nH]c1ccc(CN3CCCC(c4ccn[nH]4)C3)cc12 (centres unmarked) [Example 15, 3-((3-(1H-pyrazol-5-yl)piperidin-1-yl)methyl)-9H-carbazole]
16 | 0.34 | 0.95 | CCn1c2ccccc2c2cc(CN3CCCC(C(=O)NC)C3)ccc21 (centres unmarked) [Example 16, 1-((9-ethyl-9H-carbazol-3-yl)methyl)-N-methylpiperidine-3-carboxamide]
17 | 2.28 | 0.53 | CCn1c2ccccc2c2cc(CN3CCCC(c4ncc[nH]4)C3)ccc21 (centres unmarked) [Example 17, 3-((3-(1H-imidazol-2-yl)piperidin-1-yl)methyl)-9-ethyl-9H-carbazole]

Row | IC50 [1] [µM] | IC50 [2] [µM] | Structure (SMILES)
18 | 2.28 | 1.72 | CCn1c2ccccc2c2cc(CN3CCCC(n4ccnn4)C3)ccc21 (centres unmarked) [Example 18, 3-((3-(1H-1,2,3-triazol-1-yl)piperidin-1-yl)methyl)-9-ethyl-9H-carbazole]
19 | 0.99 | 0.59 | CCn1c2ccccc2c2cc(CN3CCCC(c4nnc[nH]4)C3)ccc21 (centres unmarked) [Example 19, 3-((3-(4H-1,2,4-Triazol-3-yl)piperidin-1-yl)methyl)-9-ethyl-9H-carbazole]
20 | 1.1 | 3.38 | CCn1c2ccccc2c2cc(CN3CCCC(C(=O)N(C)C)C3)ccc21 (centres unmarked) [Example 20, 1-((9-ethyl-9H-carbazol-3-yl)methyl)-N,N-dimethylpiperidine-3-carboxamide]
21 | 2.75 | 1.35 | CCn1c2ccccc2c2cc(CN3CCCC(c4cnc[nH]4)C3)ccc21 (centres unmarked) [Example 21, 3-((3-(1H-Imidazol-5-yl)piperidin-1-yl)methyl)-9-ethyl-9H-carbazolee]
22 | 5.9 | 8.72 | CCn1c2c(c3cc(CN4CCCC(c5ccn[nH]5)C4)ccc31)CCCC2 (centres unmarked) [Example 22, 6-((3-(1H-pyrazol-5-yl)piperidin-1-yl)methyl)-9-ethyl-2,3,4,9-tetrahydro-1H-carbazole]
23 | 0.96 | 0.09 | CCn1c2ccccc2c2cc(CN3CCCC(c4cnn[nH]4)C3)ccc21 (centres unmarked) [Example 23, 3-((3-(1H-1,2,3-triazol-5-yl)piperidin-1-yl)methyl)-9-ethyl-9H-carbazole]
24 | 4.34 | 0.57 | CCn1c2ccccc2c2cc(CN3CCCC(c4cn[nH]c4)C3)ccc21 (centres unmarked) [Example 24, 3-((3-(1H-pyrazol-4-yl)piperidin-1-yl)methyl)-9-ethyl-9H-carbazole]
25 | 19.8 | 21.1 | CN(C)CCCn1c2ccccc2c2cc(CN3CCCC(c4ccn[nH]4)C3)ccc21 (centres unmarked) [Example 26, 3-(3-((3-(1H-pyrazol-5-yl)piperidin-1-yl)methyl)-9H-carbazol-9-yl)-N,N-dimethylpropan-1-amine]
26 | > 30 | > 30 | CN(C)CCCn1c2ccccc2c2cc(CN3CCCC(C(N)=O)C3)ccc21 (centres unmarked) [Example 27, 1-((9-(3-(dimethylamino)propyl)-9H-carbazol-3-yl)methyl)piperidine-3-carboxamide]
27 | 55.9 | > 30 | CN(C)CCCn1c2ccccc2c2cc(CN3CCCC(N)C3)ccc21 (centres unmarked) [Example 28, 1-((9-(3-(dimethylamino)propyl)-9H-carbazol-3-yl)methyl)piperidin-3-amine]
28 | 32.1 | 6.74 | CCn1c2ccccc2c2ccc(CN3CCCC(c4ccn[nH]4)C3)cc21 (centres unmarked) [Example 29, 2-((3-(1H-pyrazol-5-yl)piperidin-1-yl)methyl)-9-ethyl-9H-carbazole]
29 | 37.4 | > 100 | CCn1c2ccccc2c2cccc(CN3CCCC(c4ccn[nH]4)C3)c21 (centres unmarked) [Example 30, 1-((3-(1H-pyrazol-5-yl)piperidin-1-yl)methyl)-9-ethyl-9H-carbazole]
30 | 18.4 | 14.8 | CCn1c2ccccc2c2c(CN3CCCC(c4ccn[nH]4)C3)cccc21 (centres unmarked) [Example 31, 4-((3-(1H-pyrazol-5-yl)piperidin-1-yl)methyl)-9-ethyl-9H-carbazole]
31 | 21.9 | > 30 | CCn1c2ccccc2c2c(CN3CCN(C)CC3)cccc21 [Example 32, 9-ethyl-4-((4-methylpiperazin-1-yl)methyl)-9H-carbazole]
32 | 9.64 | 19 | CCn1c2ccccc2c2cccc(CN3CCN(C)CC3)c21 [Example 33, 9-ethyl-1-((4-methylpiperazin-1-yl)methyl)-9H-carbazole]
33 | 8.55 | 35.4 | CCn1c2ccccc2c2ccc(CN3CCN(C)CC3)cc21 [Example 34, 9-ethyl-2-((4-methylpiperazin-1-yl)methyl)-9H-carbazole]

Row | Structure (SMILES) | IC50 [1] [µM] | IC50 [2] [µM]
34 | CCn1c2ccccc2c2cc(CN3CCN(C)CC3)ccc21 [Example 25, 9-ethyl-3-((4-methylpiperazin-1-yl)methyl)-9H-carbazole] | 0.66 | 2.58

From patent US8080566B1, “Carbazole inhibitors of histamine receptors for the treatment of disease” (Kalypsys, Inc, priority 2008, dated 2011)
